Converted amounts (≈) assume the structure as drawn.
Tests used:
Format in all cases: cell-based
Visna Virus = experiment: CPE Inhibition Test (Established Monolayer) for Lentiviruses, visna virus (strain K184) in sheep choroid plexus cells; conditions: Visna-maedi virus; visna virus strain K184, SCP cells; read-out: MIC (minimum concentration giving complete protection of the cell monolayers)
Experimental: 3×10^4 sheep choroid plexus (SCP) cells were plated into individual wells of a 96 well microtitre plate in 100 μl of Eagle's MEM with Hanks' salts containing 10% heat inactivated foetal calf serum (FCS). When monolayers had become established (after 1 or 2 days growth) they were washed with 200 μl of maintenance medium (Eagle's MEM with Hanks' salts containing 0.5% FCS) and infected with 100 μl of visna virus (strain K184) in maintenance medium (30 TCID50/ml). Test samples were diluted with maintenance medium in further 96 well microtitre plates over the range 200-0.06 μg/ml by 3-fold dilution steps. 100 μl of the diluted samples was then transferred directly onto virus-infected monolayers (final concentration range therefore 100-0.03 μg/ml) and […] containing 5% CO2 until virus-induced CPE was maximal in the untreated virus-infected controls (usually 12-14 days). The plates were fixed with formal saline and stained with crystal violet. Virus-induced CPE was then scored microscopically and the minimum concentration of sample giving complete protection of the cell monolayers (MIC) determined.

[1] = Cell cytotoxicity test (MTT) in peripheral human lymphocytes
Experimental: Peripheral human lymphocytes were isolated by density gradient centrifugation from blood donations of healthy volunteers. The `buffy coat`-fractions of these donations were provided by blood donation centres.
The buffy coat was diluted 1:1 with sterile phosphate buffered saline (PBS; 50 mM sodium phosphate, pH 7.4, 0,9% sodium chloride) and subsequently layered over Ficoll. Following centrifugation (30 minutes at 400×g) the supernatant was discarded and the interphase containing the lymphocytes was recovered. The lymphocytes were washed two times in PBS and were resuspended finally in cell culture medium.
A viability staining was performed by means of the trypan blue dye-exclusion method. The concentration of cells in the suspension and the percentage of viable cells were calculated. […]
The lymphocytes were cultivated in an incubator with a humidified atmosphere and 5% CO2 for 48 to 64 hours at 37° C. Following this incubation period, cells were harvested by centrifugation, resuspended in cell culture medium and counted. […]
Survival and proliferation of the lymphocytes grown in the presence of the compound were measured by a quantitative colorimetric assay. […] The amount of product which is a function of cell number and metabolic cellular activity was quantified photometrically. By this assay, potential cytotoxic and cytostatic effects of compounds towards lymphocytes were detected precisely. […]

VZV = experiment: Plaque Reduction Test for Varicella-Zoster Virus (Ellen strain) in MRC-5 cells; conditions: Human alphaherpesvirus 3, MRC5
Experimental: MRC-5 cells were grown to confluence in 24 well multi-dishes (well diameter=1.5 cm). The drained cell monolayers were each infected with approximately 50 infectious particles of varicella zoster virus (VZV; Ellen strain) in 100 μl of phosphate-buffered saline. The virus was adsorbed for 1 hour at room temperature. After adsorption, residual inoculum was removed from each well and replaced with 0.5 ml of Eagle's MEM containing 5% heat-inactivated foetal calf serum and 0.9% agarose (A37). Once the agarose had set, dilutions of the test compound, which had been prepared in Eagle's MEM (containing 5% heat-inactivated foetal calf serum), were added, each well receiving 0.5 ml of liquid overlay. The test compound was diluted to give the following series of concentrations: 200, 60, 20, 6 . . . 0.06 μg/ml; final concentrations in the assay ranged, therefore, between 100 μg/ml and 0.03 μg/ml. The infected cultures were incubated at 37° C. in a humidified atmosphere of 5% CO2 until plaques were clearly visible (5 or 6 days).
Cultures from 1 and 2 were fixed in formal saline, the agarose overlays were carefully washed off, and then the cell monolayers were stained with carbol fuchsin. A stereo microscope was used to count plaques. The IC50 (concentration of drug which inhibits the number of plaques formed by 50% relative to the number of plaques observed in virus control monolayers) of the test compound was calculated. In addition, the monolayers were examined for evidence of drug-induced cytotoxicity; the minimum concentration at which cytotoxicity occurs was recorded.

CMV = experiment: Plaque Reduction Test for Cytomegalovirus (AD-169 strain) in MRC-5 cells; conditions: Human betaherpesvirus 5, AD169, MRC5
Experimental: MRC-5 cells were grown to confluence in 24 well multi-dishes (well diameter=1.5 cm). The drained cell monolayers were each infected with approximately 50 infectious particles of cytomegalovirus (CMV; AD-169 strain) in 100 μl of phosphate-buffered saline. The virus was adsorbed for 1 hour at room temperature. After adsorption, residual inoculum was removed from each well and replaced with 1 ml of Eagle's MEM containing 10% heat inactivated foetal calf serum and 0.9% agarose (A37). Once the agarose had set, dilutions of the test compound, which had been prepared in Eagle's MEM (containing 10% heat-inactivated calf serum), were added, each well receiving 1 ml of liquid overlay. The test compound was diluted to give the following series of concentrations: 200, 60, 20, 6 . . . 0.06 μg/ml; final concentrations in the assay range, therefore, between 100 μg/ml and 0.03 μg/ml. The infected cultures were incubated at 37° C. in a humidified atmosphere containing 5% CO2 until plaques were clearly visible (about 12 days). The cultures are fixed in formol saline, the agarose overlays were carefully washed off, and then the cell monolayers were stained with carbol fuchsin. A stereo microscope was used to count plaques. The IC50 (concentration of drug which inhibits the number of plaques formed by 50% relative to the number of plaques observed in virus control monolayers) of the test compound was calculated. In addition, the monolayers were examined for evidence of drug-induced cytotoxicity; the minimum concentration at which cytotoxicity occurs was recorded.

Nc1nc2c(ncn2OCC/C=C/P(=O)(O)O)c(=O)[nH]1 [Example 1, (E)-9-(4-phosphonobut-3-enyloxy)guanine]
MIC (Visna Virus): < 0.003 µg/mL
CC50 at 96 h [1]: 1 µM
cytotoxicity at 0.1 µM ([1]; at 0.1 μM, read-out: Slight toxicity (inhibition)): 18%
IC50 (VZV): < 3 µg/mL
IC50 (CMV): 0.16 µg/mL (≈ 0.531 µM)
